Test results from patent publication US9050341B2, “Methods of treating drug resistant and other tumors by administering 6,7-dialkoxy quinazoline derivatives” (NATCO PHARMA LIMITED, priority 2009, dated 2015).

Assays:
Assay in all cases: KinomeScan kinase profiling
Assay type in all cases: binding
ABL1 (F317L) = molecular target: T1, ABL1 (F317L) (Homo sapiens, UniProt P00519, F317L)
T1 construct: host or cells: E. coli host derived from BL21 (T7 phage lysate)
How it was run: (§1)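 Kinases were expressed as T7 phage fusions in a BL21-derived E. coli host and the cleared lysates were used. Ligand beads were blocked with biotin and buffer (1% BSA, 0.05% Tween 20, 1 mM DTT). Compounds came from 40× DMSO stocks, and phage in the eluates was titred by qPCR.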

ERBB4 = molecular target: T2, ERBB4 (Homo sapiens, UniProt Q15303)
T2 construct: host or cells: E. coli host derived from BL21, T7 phage lysate
How it was run: as §1

ADCK4 = molecular target: T3, ADCK4 (Homo sapiens, UniProt Q96D53)
T3 construct: host or cells: E. coli host derived from BL21 (T7 phage lysate)
How it was run: as §1

SgK110 = molecular target: T4, SgK110 (Homo sapiens, UniProt P0C264)
T4 construct: host or cells: E. coli host derived from the BL21 strain, T7 phage lysate
How it was run: as §1

CSNK1D = molecular target: T5, CSNK1D (Homo sapiens, UniProt P48730)
T5 construct: host or cells: T7 phage in E. coli (BL21-derived)
How it was run: as §1

MEK4 = molecular target: T6, MEK4 (Homo sapiens, UniProt P45985)
T6 construct: host or cells: E. coli derived from BL21, infected with T7 phage
How it was run: as §1

PHKG2 = molecular target: T7, PHKG2 (Homo sapiens, UniProt P15735)
T7 construct: host or cells: E. coli host derived from the BL21 strain, infected with T7 phage
How it was run: as §1

ZAP70 = molecular target: T8, ZAP70 (Homo sapiens, UniProt P43403)
T8 construct: host or cells: E. coli host derived from the BL21 strain, infected with T7 phage
T8 sequence (P43403 whole entry): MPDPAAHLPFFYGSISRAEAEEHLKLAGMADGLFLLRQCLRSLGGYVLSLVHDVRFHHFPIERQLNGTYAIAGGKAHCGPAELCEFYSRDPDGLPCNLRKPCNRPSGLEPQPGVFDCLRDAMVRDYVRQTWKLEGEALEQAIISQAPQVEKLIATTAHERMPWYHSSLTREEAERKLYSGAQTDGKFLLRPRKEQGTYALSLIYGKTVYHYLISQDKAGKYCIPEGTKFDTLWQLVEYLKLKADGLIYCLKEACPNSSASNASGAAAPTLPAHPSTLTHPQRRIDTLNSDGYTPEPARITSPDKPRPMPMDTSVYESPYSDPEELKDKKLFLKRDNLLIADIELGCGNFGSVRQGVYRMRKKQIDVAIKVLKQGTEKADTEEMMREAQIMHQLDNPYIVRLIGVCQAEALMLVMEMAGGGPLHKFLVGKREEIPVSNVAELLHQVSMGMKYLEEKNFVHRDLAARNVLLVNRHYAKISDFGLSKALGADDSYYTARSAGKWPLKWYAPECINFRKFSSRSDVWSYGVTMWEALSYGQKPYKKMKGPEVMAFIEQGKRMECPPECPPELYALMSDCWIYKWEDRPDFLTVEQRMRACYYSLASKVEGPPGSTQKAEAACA
How it was run: as §1

AURKA = molecular target: T9, AURKA (Homo sapiens, UniProt O14965)
T9 construct: purchased Ambit Biosciences Corp (KinomeScan); host or cells: E. coli host derived from the BL21 strain, T7 phage
T9 sequence (O14965 whole entry): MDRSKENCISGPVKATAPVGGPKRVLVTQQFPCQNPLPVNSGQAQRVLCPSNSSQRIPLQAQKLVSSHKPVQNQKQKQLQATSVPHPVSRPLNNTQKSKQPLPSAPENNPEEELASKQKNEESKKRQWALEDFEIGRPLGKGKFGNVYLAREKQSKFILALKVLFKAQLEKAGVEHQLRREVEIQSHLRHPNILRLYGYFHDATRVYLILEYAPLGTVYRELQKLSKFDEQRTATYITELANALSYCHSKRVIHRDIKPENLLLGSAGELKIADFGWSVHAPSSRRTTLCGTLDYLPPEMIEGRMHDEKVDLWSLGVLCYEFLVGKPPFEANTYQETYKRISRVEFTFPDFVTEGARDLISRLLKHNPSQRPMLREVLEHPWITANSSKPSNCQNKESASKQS
How it was run: as §1

MAP3K4 = molecular target: T10, MAP3K4 (Homo sapiens, UniProt Q9Y6R4)
T10 construct: host or cells: E. coli derived from BL21, infected with T7 phage
How it was run: as §1

NEK9 = molecular target: T11, NEK9 (Homo sapiens, UniProt Q8TD19)
T11 construct: host or cells: T7 phage in E. coli host derived from BL21
T11 sequence (Q8TD19 whole entry): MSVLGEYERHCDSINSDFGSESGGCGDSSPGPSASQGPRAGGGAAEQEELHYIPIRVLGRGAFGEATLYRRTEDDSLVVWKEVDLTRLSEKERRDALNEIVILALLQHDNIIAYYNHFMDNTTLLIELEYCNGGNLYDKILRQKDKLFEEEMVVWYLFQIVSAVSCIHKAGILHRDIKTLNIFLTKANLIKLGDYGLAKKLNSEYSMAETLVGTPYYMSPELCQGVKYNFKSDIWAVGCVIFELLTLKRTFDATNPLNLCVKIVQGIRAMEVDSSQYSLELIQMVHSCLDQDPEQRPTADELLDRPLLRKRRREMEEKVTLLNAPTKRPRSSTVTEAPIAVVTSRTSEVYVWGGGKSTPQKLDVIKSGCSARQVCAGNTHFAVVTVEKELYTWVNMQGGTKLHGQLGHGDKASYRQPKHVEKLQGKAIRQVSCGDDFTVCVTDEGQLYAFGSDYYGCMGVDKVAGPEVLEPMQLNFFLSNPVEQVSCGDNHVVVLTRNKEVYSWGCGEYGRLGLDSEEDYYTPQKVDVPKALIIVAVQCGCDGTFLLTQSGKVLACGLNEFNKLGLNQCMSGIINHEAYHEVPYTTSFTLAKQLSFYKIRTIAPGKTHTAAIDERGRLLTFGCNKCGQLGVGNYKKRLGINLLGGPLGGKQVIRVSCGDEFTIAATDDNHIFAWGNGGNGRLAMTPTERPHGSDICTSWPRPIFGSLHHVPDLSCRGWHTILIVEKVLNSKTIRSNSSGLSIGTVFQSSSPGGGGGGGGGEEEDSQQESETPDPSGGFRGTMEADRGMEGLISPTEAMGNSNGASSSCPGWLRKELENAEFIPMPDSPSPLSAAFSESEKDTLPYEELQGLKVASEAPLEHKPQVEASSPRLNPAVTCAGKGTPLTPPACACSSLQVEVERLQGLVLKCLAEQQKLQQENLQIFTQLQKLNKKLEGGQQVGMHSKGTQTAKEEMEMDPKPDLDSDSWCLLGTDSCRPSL
How it was run: as §1

CSK = molecular target: T12, CSK (Homo sapiens, UniProt P41240)
T12 construct: host or cells: T7 phage in E. coli (BL21-derived)
How it was run: as §1

DCAMKL3 = molecular target: T13, DCAMKL3 (Homo sapiens, UniProt Q9C098)
T13 construct: purchased Ambit Biosciences Corp (KinomeScan); host or cells: T7 phage in E. coli host derived from BL21
T13 sequence (Q9C098 whole entry): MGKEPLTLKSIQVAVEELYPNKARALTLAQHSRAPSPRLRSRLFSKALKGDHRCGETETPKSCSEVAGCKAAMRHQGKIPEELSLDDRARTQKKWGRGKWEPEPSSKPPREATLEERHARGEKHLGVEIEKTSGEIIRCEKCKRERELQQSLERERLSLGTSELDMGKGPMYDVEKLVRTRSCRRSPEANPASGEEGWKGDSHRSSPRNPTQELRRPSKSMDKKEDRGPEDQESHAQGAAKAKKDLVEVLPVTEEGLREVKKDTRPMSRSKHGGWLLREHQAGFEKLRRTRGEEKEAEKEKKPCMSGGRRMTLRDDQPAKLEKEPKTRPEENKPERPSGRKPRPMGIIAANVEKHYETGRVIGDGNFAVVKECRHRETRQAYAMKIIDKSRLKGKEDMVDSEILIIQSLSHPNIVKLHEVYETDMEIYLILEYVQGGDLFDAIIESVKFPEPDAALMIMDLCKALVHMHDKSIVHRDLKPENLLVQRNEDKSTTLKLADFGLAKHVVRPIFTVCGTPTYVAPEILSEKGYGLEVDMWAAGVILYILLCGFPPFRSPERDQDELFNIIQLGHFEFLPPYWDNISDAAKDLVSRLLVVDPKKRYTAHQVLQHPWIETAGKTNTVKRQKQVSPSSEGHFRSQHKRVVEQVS
How it was run: as §1

ACVR2A = molecular target: T14, ACVR2A (Homo sapiens, UniProt P27037)
T14 construct: host or cells: E. coli host derived from BL21 (T7 phage lysate)
T14 sequence (P27037 20-513): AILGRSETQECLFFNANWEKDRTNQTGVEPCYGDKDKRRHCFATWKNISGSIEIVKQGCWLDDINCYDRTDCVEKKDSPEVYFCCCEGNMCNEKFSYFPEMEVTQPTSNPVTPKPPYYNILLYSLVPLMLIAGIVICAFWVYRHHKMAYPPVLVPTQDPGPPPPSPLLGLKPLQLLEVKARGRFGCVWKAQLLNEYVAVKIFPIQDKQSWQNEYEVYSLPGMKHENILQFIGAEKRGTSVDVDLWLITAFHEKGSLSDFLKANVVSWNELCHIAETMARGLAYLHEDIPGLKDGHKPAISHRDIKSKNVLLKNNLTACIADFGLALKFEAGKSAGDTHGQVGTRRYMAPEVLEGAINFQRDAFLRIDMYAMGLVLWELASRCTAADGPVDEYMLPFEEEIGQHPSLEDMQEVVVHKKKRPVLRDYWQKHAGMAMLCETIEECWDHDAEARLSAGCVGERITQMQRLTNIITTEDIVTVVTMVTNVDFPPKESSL
How it was run: as §1

PFTK1 = molecular target: T15, PFTK1 (Homo sapiens, UniProt O94921)
T15 construct: host or cells: E. coli host derived from the BL21 strain, infected with T7 phage
T15 sequence (O94921 whole entry): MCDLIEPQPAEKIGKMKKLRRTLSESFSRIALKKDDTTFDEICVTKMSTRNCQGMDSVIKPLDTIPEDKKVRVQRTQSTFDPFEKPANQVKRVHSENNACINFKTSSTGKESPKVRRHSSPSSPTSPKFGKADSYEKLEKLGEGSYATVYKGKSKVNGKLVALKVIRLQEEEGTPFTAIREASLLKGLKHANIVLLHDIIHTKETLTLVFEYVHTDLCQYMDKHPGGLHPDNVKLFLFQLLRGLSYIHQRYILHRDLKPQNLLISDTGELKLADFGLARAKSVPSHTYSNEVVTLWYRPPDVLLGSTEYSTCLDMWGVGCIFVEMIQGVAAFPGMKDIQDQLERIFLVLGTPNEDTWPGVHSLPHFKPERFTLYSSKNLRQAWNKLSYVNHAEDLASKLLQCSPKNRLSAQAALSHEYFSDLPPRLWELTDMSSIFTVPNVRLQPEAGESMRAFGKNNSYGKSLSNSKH
How it was run: as §1

FER = molecular target: T16, FER (Homo sapiens, UniProt P16591)
T16 construct: host or cells: E. coli host derived from BL21, infected with T7 phage
How it was run: as §1

LIMK2 = molecular target: T17, LIMK2 (Homo sapiens, UniProt P53671)
T17 construct: host or cells: T7 phage in E. coli host derived from BL21
T17 sequence (P53671 whole entry): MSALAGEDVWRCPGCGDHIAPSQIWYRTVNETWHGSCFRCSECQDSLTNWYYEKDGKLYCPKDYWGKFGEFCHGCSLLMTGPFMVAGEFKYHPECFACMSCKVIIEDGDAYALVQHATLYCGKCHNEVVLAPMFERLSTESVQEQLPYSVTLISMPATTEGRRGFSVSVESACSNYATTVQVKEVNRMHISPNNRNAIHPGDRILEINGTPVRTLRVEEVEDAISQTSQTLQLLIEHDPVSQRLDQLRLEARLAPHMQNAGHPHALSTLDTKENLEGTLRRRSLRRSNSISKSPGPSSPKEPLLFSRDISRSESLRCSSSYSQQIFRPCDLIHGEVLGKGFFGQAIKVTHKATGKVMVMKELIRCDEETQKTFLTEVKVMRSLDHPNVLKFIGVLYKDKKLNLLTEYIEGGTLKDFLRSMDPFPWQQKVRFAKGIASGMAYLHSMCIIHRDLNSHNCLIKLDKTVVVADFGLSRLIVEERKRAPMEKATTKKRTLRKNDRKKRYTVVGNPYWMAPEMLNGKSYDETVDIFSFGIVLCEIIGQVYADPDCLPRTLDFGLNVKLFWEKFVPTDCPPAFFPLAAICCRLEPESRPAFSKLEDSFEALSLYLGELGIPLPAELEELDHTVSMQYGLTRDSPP
How it was run: as §1

ARK5 = molecular target: T18, ARK5 (Homo sapiens, UniProt O60285)
T18 construct: purchased Ambit Biosciences Corp (KinomeScan); host or cells: E. coli host derived from the BL21 strain, T7 phage
How it was run: as §1

ERK3 = molecular target: T19, ERK3 (Homo sapiens, UniProt Q16659)
T19 construct: host or cells: E. coli host derived from BL21, T7 phage lysate
T19 sequence (Q16659 whole entry): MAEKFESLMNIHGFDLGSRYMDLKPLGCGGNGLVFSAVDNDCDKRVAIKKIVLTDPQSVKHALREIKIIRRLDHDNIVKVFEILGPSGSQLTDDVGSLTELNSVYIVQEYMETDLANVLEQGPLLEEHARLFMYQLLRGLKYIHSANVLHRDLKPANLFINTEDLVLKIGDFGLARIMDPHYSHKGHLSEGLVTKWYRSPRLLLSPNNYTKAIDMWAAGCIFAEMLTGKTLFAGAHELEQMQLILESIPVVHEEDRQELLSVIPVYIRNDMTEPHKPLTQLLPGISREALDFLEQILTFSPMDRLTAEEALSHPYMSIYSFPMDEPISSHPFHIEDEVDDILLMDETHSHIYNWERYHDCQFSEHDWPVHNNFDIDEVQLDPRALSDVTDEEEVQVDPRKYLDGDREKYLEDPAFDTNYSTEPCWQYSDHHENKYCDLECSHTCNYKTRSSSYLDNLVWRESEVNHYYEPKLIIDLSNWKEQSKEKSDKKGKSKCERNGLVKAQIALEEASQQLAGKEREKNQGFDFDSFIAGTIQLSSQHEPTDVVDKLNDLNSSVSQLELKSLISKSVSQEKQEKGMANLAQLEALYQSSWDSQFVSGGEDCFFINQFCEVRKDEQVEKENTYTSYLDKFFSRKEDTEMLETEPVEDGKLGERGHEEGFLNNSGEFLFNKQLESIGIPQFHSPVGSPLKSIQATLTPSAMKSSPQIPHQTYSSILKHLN
How it was run: as §1

WEE2 = molecular target: T20, WEE2 (Homo sapiens, UniProt P0C1S8)
T20 construct: purchased Ambit Biosciences Corp (KinomeScan); host or cells: E. coli host derived from the BL21 strain (T7 phage lysate)
How it was run: as §1

MARK2 = molecular target: T21, MARK2 (Homo sapiens, UniProt Q7KZI7)
T21 construct: host or cells: E. coli derived from BL21, infected with T7 phage
How it was run: as §1

TXK = molecular target: T22, TXK (Homo sapiens, UniProt P42681)
T22 construct: purchased Ambit Biosciences Corp (KinomeScan); host or cells: E. coli host derived from the BL21 strain (T7 phage lysate)
How it was run: as §1

RIOK2 = molecular target: T23, RIOK2 (Homo sapiens, UniProt Q9BVS4)
T23 construct: host or cells: E. coli host derived from BL21, T7 phage lysate
How it was run: as §1

For `C#Cc1cccc(Nc2ncnc3cc(OC)c(OCCCN4CCOCC4)cc23)c1` [NRC-2694, N-(3-ethylnylphenyl)-7-methoxy-6-[3-(4-morpholinyl)propoxy]-4-quinazolinamine], the “% Ctrl @ 10000 nM” value (ABL1 (F317L)) was 33 % Ctrl, the “% Ctrl @ 10000 nM” value (ERBB4) was 3.3 % Ctrl and the “% Ctrl @ 10000 nM” value (ADCK4) was 14 % Ctrl. For the same compound, the “% Ctrl @ 10000 nM” value (SgK110) was 83 % Ctrl, the “% Ctrl @ 10000 nM” value (CSNK1D) was 25 % Ctrl and the “% Ctrl @ 10000 nM” value (MEK4) was 92 % Ctrl. The “% Ctrl @ 10000 nM” value (PHKG2) was 59 % Ctrl, the “% Ctrl @ 10000 nM” value (ZAP70) was 100 % Ctrl and the “% Ctrl @ 10000 nM” value (AURKA) was 100 % Ctrl. The “% Ctrl @ 10000 nM” value (MAP3K4) was 53 % Ctrl, the “% Ctrl @ 10000 nM” value (NEK9) was 85 % Ctrl and the “% Ctrl @ 10000 nM” value (CSK) was 53 % Ctrl. The “% Ctrl @ 10000 nM” value (DCAMKL3) was 14 % Ctrl, the “% Ctrl @ 10000 nM” value (ACVR2A) was 92 % Ctrl and the “% Ctrl @ 10000 nM” value (PFTK1) was 71 % Ctrl. The “% Ctrl @ 10000 nM” value (FER) was 94 % Ctrl, the “% Ctrl @ 10000 nM” value (LIMK2) was 100 % Ctrl and the “% Ctrl @ 10000 nM” value (ARK5) was 29 % Ctrl. The “% Ctrl @ 10000 nM” value (ERK3) was 10 % Ctrl, the “% Ctrl @ 10000 nM” value (WEE2) was 53 % Ctrl and the “% Ctrl @ 10000 nM” value (MARK2) was 70 % Ctrl. For the same compound, the “% Ctrl @ 10000 nM” value (TXK) was 39 % Ctrl and the “% Ctrl @ 10000 nM” value (RIOK2) was 43 % Ctrl.
